Values of other authors as cited in patent publication US9526701B2, “Sustained drug release and improved product stability using non-covalent particle coating methods” (priority 2011, dated 2016).

Conditions: for half life in the blood: following administration; for bioavailability: oral administration

Row | half life in the blood | bioavailability | SMILES
1 | 20 to 30 h | greater than 95% | N[C@@H](Cc1cc(I)c(Oc2ccc(O)c(I)c2)c(I)c1)C(=O)O [Example T3, 3,5,3′-triiodo-L-thyronine]
2 | greater than 7 days | 45-65% | N[C@@H](Cc1cc(I)c(Oc2cc(I)c(O)c(I)c2)c(I)c1)C(=O)O [Example T4, 3,5,3′,5′-tetraiodo-L-thyronine]
